From the kinase profiling compilation of Christmann-Franck et al. (2016)

How the values were obtained:
Experiment in all cases: KINOMEscan competition binding
Conditions in all cases: compound 10.0 µM
AAK1 (human) = AAK1 (human) (UniProt Q2M2I8)
ACVR1 (human) = ACVR1 (human) (UniProt Q04771)
ACVR1B (human) = ACVR1B (human) (UniProt P36896)
CAMKK1 (human) = CAMKK1 (human) (UniProt Q8N5S9)
CDC42BPB (human) = CDC42BPB (human) (UniProt Q9Y5S2)
CDC42BPG (human) = CDC42BPG (human) (UniProt Q6DT37)
CLK2 (human) = CLK2 (human) (UniProt P49760)
CSK (human) = CSK (human) (UniProt P41240)
CSNK1D (human) = CSNK1D (human) (UniProt P48730)
EPHA2 (human) = EPHA2 (human) (UniProt P29317)
EPHA6 (human) = EPHA6 (human) (UniProt Q9UF33)
ERBB2 (human) = ERBB2 (human) (UniProt P04626)
ERBB4 (human) = ERBB4 (human) (UniProt Q15303)
FGFR1 (human) = FGFR1 (human) (UniProt P11362)
FGFR3 (human) = FGFR3 (human) (UniProt P22607)
MAP3K4 (human) = MAP3K4 (human) (UniProt Q9Y6R4)
MAP4K2 (human) = MAP4K2 (human) (UniProt Q12851)
MAP4K5 (human) = MAP4K5 (human) (UniProt Q9Y4K4)
MAPK14 (human) = MAPK14 (human) (UniProt Q16539)
MAPK7 (human) = MAPK7 (human) (UniProt Q13164)
MAPKAPK2 (human) = MAPKAPK2 (human) (UniProt P49137)
NLK (human) = NLK (human) (UniProt Q9UBE8)
PAK4 (human) = PAK4 (human) (UniProt O96013)
PDPK1 (human) = PDPK1 (human) (UniProt O15530)
PIM2 (human) = PIM2 (human) (UniProt Q9P1W9)
PKN1 (human) = PKN1 (human) (UniProt Q16512)
PKN2 (human) = PKN2 (human) (UniProt Q16513)
PLK3 (human) = PLK3 (human) (UniProt Q9H4B4)
PLK4 (human) = PLK4 (human) (UniProt O00444)
PRKD2 (human) = PRKD2 (human) (UniProt Q9BZL6)
PRKG1 (human) = PRKG1 (human) (UniProt Q13976)
PTK2 (human) = PTK2 (human) (UniProt Q05397)
RPS6KA2 KD1 (human) = RPS6KA2 KD1 (human) (UniProt Q15349)
RPS6KA2 KD2 (human) = RPS6KA2 KD2 (human) (UniProt Q15349)
RPS6KA4 KD1 (human) = RPS6KA4 KD1 (human) (UniProt O75676)
SRPK1 (human) = SRPK1 (human) (UniProt Q96SB4)
STK32B (human) = STK32B (human) (UniProt Q9NY57)
TGFBR1 (human) = TGFBR1 (human) (UniProt P36897)
TLK2 (human) = TLK2 (human) (UniProt Q86UE8)
ULK3 (human) = ULK3 (human) (UniProt Q6PHR2)
Sequence of ULK3 (human) (Q6PHR2 whole entry, looked up): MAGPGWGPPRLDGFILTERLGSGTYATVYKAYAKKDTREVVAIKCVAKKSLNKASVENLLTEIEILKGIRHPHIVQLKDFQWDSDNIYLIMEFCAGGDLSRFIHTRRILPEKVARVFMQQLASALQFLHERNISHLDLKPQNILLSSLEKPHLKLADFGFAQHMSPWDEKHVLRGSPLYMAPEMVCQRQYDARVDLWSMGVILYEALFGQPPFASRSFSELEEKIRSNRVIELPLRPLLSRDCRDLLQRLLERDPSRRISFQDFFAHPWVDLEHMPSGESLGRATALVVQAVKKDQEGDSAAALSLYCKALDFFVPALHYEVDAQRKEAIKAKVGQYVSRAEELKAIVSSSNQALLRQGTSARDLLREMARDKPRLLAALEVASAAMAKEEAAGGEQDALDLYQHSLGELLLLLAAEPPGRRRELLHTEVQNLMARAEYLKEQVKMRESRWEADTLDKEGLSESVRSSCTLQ

Sequence of FGFR1 (human) (P11362 whole entry, looked up): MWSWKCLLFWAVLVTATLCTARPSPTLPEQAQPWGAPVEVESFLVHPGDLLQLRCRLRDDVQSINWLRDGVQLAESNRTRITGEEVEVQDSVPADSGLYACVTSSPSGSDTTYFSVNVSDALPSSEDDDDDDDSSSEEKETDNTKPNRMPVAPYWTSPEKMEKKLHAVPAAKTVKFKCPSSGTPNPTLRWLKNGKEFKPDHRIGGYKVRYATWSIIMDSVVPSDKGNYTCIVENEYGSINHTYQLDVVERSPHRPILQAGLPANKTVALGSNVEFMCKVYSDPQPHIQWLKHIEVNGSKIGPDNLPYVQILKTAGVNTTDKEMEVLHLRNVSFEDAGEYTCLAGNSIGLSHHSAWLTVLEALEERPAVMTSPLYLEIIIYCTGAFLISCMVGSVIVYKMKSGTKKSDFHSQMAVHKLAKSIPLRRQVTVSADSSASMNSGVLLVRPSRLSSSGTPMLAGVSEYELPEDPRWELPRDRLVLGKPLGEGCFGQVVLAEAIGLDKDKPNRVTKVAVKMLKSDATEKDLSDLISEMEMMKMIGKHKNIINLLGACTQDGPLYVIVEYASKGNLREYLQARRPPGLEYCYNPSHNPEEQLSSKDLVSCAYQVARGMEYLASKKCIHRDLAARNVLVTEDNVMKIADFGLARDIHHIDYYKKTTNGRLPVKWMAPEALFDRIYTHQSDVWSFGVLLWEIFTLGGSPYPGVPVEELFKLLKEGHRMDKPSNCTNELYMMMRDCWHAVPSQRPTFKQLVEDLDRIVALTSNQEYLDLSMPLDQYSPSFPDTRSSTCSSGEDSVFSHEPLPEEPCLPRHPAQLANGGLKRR
Sequence of PDPK1 (human) (O15530 whole entry, looked up): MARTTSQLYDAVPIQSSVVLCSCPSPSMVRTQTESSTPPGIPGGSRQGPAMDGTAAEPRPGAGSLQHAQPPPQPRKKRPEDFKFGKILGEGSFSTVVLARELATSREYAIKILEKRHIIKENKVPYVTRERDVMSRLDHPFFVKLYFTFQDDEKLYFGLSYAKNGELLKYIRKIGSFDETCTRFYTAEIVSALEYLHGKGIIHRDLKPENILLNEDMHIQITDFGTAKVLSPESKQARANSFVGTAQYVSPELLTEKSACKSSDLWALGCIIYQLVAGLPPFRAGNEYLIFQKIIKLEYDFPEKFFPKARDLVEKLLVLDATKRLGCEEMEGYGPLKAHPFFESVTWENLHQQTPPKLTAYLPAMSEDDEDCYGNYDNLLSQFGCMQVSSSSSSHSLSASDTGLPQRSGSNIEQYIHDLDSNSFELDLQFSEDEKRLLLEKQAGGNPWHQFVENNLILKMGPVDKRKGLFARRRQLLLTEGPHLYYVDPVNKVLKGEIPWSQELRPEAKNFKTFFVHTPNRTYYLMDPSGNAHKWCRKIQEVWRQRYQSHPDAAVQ
Sequence of ERBB2 (human) (P04626 whole entry, looked up): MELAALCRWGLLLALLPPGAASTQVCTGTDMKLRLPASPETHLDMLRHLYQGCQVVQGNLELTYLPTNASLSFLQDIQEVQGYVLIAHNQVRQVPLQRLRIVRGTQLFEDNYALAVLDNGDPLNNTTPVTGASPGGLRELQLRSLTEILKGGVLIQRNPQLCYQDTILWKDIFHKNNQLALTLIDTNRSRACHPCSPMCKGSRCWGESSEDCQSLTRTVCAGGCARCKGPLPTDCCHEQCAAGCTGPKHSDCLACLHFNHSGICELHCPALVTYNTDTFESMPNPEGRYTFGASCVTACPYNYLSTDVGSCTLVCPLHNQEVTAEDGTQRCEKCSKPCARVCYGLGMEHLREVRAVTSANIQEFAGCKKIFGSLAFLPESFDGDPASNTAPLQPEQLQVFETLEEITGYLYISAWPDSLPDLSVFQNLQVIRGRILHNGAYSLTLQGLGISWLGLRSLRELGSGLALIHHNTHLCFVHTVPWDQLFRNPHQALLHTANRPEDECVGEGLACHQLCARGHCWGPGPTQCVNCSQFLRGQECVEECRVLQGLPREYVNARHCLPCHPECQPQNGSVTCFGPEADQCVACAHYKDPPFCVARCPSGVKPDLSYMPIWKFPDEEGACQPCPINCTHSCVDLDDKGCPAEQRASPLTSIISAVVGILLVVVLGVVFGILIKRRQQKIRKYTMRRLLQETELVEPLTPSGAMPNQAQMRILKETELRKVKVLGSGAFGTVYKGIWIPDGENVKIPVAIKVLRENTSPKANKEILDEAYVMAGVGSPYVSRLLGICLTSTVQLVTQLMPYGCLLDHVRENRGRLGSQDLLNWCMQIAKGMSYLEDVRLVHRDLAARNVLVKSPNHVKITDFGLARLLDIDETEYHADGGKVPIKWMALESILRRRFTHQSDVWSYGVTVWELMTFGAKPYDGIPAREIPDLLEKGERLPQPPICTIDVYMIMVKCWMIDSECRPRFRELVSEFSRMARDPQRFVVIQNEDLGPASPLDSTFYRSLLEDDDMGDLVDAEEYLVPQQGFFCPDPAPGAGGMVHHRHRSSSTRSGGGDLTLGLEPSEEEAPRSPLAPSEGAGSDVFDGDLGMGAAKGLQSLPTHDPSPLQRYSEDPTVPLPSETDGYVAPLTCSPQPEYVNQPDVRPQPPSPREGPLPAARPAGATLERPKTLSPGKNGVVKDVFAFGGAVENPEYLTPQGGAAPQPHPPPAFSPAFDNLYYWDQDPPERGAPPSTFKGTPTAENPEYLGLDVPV
Sequence of PRKG1 (human) (Q13976 whole entry, looked up): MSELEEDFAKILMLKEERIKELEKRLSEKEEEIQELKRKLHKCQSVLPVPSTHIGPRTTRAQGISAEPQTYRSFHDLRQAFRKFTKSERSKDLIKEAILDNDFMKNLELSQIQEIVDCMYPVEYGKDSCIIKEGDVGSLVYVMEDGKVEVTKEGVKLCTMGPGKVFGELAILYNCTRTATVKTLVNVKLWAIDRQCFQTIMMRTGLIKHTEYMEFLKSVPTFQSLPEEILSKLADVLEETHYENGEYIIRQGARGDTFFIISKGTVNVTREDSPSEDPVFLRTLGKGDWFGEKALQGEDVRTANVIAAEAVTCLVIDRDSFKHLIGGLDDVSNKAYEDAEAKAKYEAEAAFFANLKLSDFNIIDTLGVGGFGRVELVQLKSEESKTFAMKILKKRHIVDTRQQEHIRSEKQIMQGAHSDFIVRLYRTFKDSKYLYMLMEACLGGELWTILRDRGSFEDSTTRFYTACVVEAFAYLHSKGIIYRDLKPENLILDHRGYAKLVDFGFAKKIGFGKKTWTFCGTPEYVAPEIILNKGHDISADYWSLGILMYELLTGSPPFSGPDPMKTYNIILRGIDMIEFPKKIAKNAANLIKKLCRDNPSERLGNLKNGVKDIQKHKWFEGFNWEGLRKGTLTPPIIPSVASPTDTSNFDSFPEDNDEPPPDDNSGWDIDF
Sequence of RPS6KA2 KD1 (human) (Q15349 whole entry, looked up): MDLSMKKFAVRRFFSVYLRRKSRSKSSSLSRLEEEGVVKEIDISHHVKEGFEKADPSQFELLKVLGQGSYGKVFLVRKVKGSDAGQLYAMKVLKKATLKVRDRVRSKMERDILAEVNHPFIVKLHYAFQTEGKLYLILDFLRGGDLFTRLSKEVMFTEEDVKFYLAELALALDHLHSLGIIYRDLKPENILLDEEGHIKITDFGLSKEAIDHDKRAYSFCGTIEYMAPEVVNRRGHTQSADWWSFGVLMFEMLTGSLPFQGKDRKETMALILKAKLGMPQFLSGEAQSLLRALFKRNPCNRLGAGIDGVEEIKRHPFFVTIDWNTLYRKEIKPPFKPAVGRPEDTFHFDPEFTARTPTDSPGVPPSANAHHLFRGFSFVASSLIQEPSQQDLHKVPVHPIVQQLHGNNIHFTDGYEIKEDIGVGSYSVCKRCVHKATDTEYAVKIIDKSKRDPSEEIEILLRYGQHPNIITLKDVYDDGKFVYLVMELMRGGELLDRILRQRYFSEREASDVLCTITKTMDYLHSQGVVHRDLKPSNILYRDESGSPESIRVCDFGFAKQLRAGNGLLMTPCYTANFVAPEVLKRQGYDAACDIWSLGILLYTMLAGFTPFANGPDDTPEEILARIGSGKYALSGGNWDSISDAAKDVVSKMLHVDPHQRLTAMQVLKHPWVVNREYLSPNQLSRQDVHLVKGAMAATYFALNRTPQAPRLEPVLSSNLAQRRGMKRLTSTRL
Sequence of RPS6KA2 KD2 (human) (Q15349 whole entry, looked up): as above
Sequence of CLK2 (human) (P49760 whole entry, looked up): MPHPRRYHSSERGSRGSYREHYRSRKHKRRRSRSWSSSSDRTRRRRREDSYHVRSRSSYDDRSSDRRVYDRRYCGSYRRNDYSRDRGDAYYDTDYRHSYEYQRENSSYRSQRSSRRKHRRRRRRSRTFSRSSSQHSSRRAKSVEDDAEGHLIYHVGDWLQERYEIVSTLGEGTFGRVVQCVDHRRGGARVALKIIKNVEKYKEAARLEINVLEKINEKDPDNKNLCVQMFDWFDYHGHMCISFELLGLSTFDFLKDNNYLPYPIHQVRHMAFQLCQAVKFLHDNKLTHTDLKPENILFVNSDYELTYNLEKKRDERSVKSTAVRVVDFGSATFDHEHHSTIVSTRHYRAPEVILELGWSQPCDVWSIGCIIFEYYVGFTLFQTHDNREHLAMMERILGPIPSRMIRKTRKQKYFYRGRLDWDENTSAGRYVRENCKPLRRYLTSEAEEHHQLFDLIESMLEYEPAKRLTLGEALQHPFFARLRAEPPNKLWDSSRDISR

kinase still bound, per cent of control (AAK1 (human)) [%] | kinase still bound, per cent of control (ACVR1 (human)) [%] | kinase still bound, per cent of control (ACVR1B (human)) [%] | kinase still bound, per cent of control (CAMKK1 (human)) [%] | kinase still bound, per cent of control (CDC42BPB (human)) [%] | kinase still bound, per cent of control (CDC42BPG (human)) [%] | kinase still bound, per cent of control (CLK2 (human)) [%] | kinase still bound, per cent of control (CSK (human)) [%] | kinase still bound, per cent of control (CSNK1D (human)) [%] | kinase still bound, per cent of control (EPHA2 (human)) [%] | kinase still bound, per cent of control (EPHA6 (human)) [%] | kinase still bound, per cent of control (ERBB2 (human)) [%] | kinase still bound, per cent of control (ERBB4 (human)) [%] | kinase still bound, per cent of control (FGFR1 (human)) [%] | kinase still bound, per cent of control (FGFR3 (human)) [%] | kinase still bound, per cent of control (MAP3K4 (human)) [%] | kinase still bound, per cent of control (MAP4K2 (human)) [%] | kinase still bound, per cent of control (MAP4K5 (human)) [%] | kinase still bound, per cent of control (MAPK14 (human)) [%] | kinase still bound, per cent of control (MAPK7 (human)) [%] | SMILES | further results
100 | 100 | 100 | 100 | 100 | 100 | 100 | 100 | 100 | 100 | 100 | 100 | 100 | 100 | 100 | 100 | 100 | 100 | 100 | 100 | COc1cc(C(=O)NC2CCN(C)CC2)ccc1Nc1ncc2c(n1)N(C1CCCC1)CCC(=O)N2C(C)C | kinase still bound, per cent of control (MAPKAPK2 (human)): 100%; kinase still bound, per cent of control (NLK (human)): 100%; kinase still bound, per cent of control (PAK4 (human)): 100%; kinase still bound, per cent of control (PDPK1 (human)): 100%; kinase still bound, per cent of control (PIM2 (human)): 100%; kinase still bound, per cent of control (PKN1 (human)): 100%; kinase still bound, per cent of control (PKN2 (human)): 100%; kinase still bound, per cent of control (PLK3 (human)): 100%; kinase still bound, per cent of control (PLK4 (human)): 100%; kinase still bound, per cent of control (PRKD2 (human)): 100%; kinase still bound, per cent of control (PRKG1 (human)): 100%; kinase still bound, per cent of control (PTK2 (human)): 100%; kinase still bound, per cent of control (RPS6KA2 KD1 (human)): 100%; kinase still bound, per cent of control (RPS6KA2 KD2 (human)): 100%; kinase still bound, per cent of control (RPS6KA4 KD1 (human)): 100%; kinase still bound, per cent of control (SRPK1 (human)): 0%; kinase still bound, per cent of control (STK32B (human)): 100%; kinase still bound, per cent of control (TGFBR1 (human)): 100%; kinase still bound, per cent of control (TLK2 (human)): 100%; kinase still bound, per cent of control (ULK3 (human)): 100%
21 | 100 | 100 | 100 | 100 | 100 | 0.3 | 100 | 100 | 100 | 100 | 100 | 100 | 100 | 100 | 100 | 100 | 100 | 100 | 100 | OCCCNc1cc(-c2ccnc(Nc3cccc(Cl)c3)n2)ccn1 | kinase still bound, per cent of control (MAPKAPK2 (human)): 100%; kinase still bound, per cent of control (NLK (human)): 100%; kinase still bound, per cent of control (PAK4 (human)): 100%; kinase still bound, per cent of control (PDPK1 (human)): 100%; kinase still bound, per cent of control (PIM2 (human)): 100%; kinase still bound, per cent of control (PKN1 (human)): 100%; kinase still bound, per cent of control (PKN2 (human)): 100%; kinase still bound, per cent of control (PLK3 (human)): 100%; kinase still bound, per cent of control (PLK4 (human)): 100%; kinase still bound, per cent of control (PRKD2 (human)): 100%; kinase still bound, per cent of control (PRKG1 (human)): 100%; kinase still bound, per cent of control (PTK2 (human)): 100%; kinase still bound, per cent of control (RPS6KA2 KD1 (human)): 100%; kinase still bound, per cent of control (RPS6KA2 KD2 (human)): 100%; kinase still bound, per cent of control (RPS6KA4 KD1 (human)): 100%; kinase still bound, per cent of control (SRPK1 (human)): 100%; kinase still bound, per cent of control (STK32B (human)): 100%; kinase still bound, per cent of control (TGFBR1 (human)): 100%; kinase still bound, per cent of control (TLK2 (human)): 100%; kinase still bound, per cent of control (ULK3 (human)): 100%

SMILES | kinase still bound, per cent of control (AAK1 (human)) [%] | kinase still bound, per cent of control (ACVR1 (human)) [%] | kinase still bound, per cent of control (ACVR1B (human)) [%] | kinase still bound, per cent of control (CAMKK1 (human)) [%] | kinase still bound, per cent of control (CDC42BPB (human)) [%] | kinase still bound, per cent of control (CDC42BPG (human)) [%] | kinase still bound, per cent of control (CLK2 (human)) [%] | kinase still bound, per cent of control (CSK (human)) [%] | kinase still bound, per cent of control (CSNK1D (human)) [%] | kinase still bound, per cent of control (EPHA2 (human)) [%] | kinase still bound, per cent of control (EPHA6 (human)) [%] | kinase still bound, per cent of control (ERBB2 (human)) [%] | kinase still bound, per cent of control (ERBB4 (human)) [%] | kinase still bound, per cent of control (FGFR1 (human)) [%] | kinase still bound, per cent of control (FGFR3 (human)) [%] | kinase still bound, per cent of control (MAP3K4 (human)) [%] | kinase still bound, per cent of control (MAP4K2 (human)) [%] | kinase still bound, per cent of control (MAP4K5 (human)) [%] | kinase still bound, per cent of control (MAPK14 (human)) [%] | kinase still bound, per cent of control (MAPK7 (human)) [%] | further results
C=CC(=O)Nc1cc(NC(=O)c2ccc(C)c(NC(=O)c3ccno3)c2)cc(C(F)(F)F)c1 | 77 | 84 | 100 | 96 | 91 | 100 | 80 | 71 | 100 | 28 | 93 | 100 | 100 | 100 | 97 | 100 | 100 | 100 | 0.5 | 92 | kinase still bound, per cent of control (MAPKAPK2 (human)): 100%; kinase still bound, per cent of control (NLK (human)): 93%; kinase still bound, per cent of control (PAK4 (human)): 93%; kinase still bound, per cent of control (PDPK1 (human)): 94%; kinase still bound, per cent of control (PIM2 (human)): 96%; kinase still bound, per cent of control (PKN1 (human)): 96%; kinase still bound, per cent of control (PKN2 (human)): 100%; kinase still bound, per cent of control (PLK3 (human)): 100%; kinase still bound, per cent of control (PLK4 (human)): 91%; kinase still bound, per cent of control (PRKD2 (human)): 100%; kinase still bound, per cent of control (PRKG1 (human)): 100%; kinase still bound, per cent of control (PTK2 (human)): 91%; kinase still bound, per cent of control (RPS6KA2 KD1 (human)): 100%; kinase still bound, per cent of control (RPS6KA2 KD2 (human)): 100%; kinase still bound, per cent of control (RPS6KA4 KD1 (human)): 100%; kinase still bound, per cent of control (SRPK1 (human)): 86%; kinase still bound, per cent of control (STK32B (human)): 100%; kinase still bound, per cent of control (TGFBR1 (human)): 96%; kinase still bound, per cent of control (TLK2 (human)): 100%; kinase still bound, per cent of control (ULK3 (human)): 97%
